Where two headings read alike, the source gives them in different places.
Experiments:
[1] = Pharmacokinetics after oral administration to rats; assay type: in vivo, rat
From the text: In one embodiment, the compound may even show an apparent elimination half-life of at least about 30 days or even at least 35 days. […] The results observed were completely unexpected in view of the previous rat experiments showing a half-life of about a week [Batzl-Hartmann et al, 1994 and Bhatnagar et al, 1996]. This surprising extremely long half-life of the compound in humans gives rise to the particular dosing scheduled of the invention.

[2] = system: estrone, estrone sulfate and estradiol; experiment: Single ascending dose study in women, pharmacodynamics (estrogen suppression); assay type: in vivo, human
Protocol: Patients received either 0.1 mg, 1 mg, and 10 mg drug substance containing hard gelatin capsules or appropriate matching placebo capsules.
A minimal toxic dose (MTD) was not reached. […] Table 3 presents the PK parameters based on preliminary analysis of the concentration-time profile obtained from this study.

[3] = Toxicologic studies in female and male dogs, weekly oral dosing; assay type: in vivo, dog
From the text: Generally, the inter-animal variability in Cmax levels was small.

[4] = previous rat experiments; Batzl-Hartmann 1994, Bhatnagar 1996; cited from earlier work
[5] = Human ADME study, single oral dose of 1 mg 14C-CGP47645 in healthy postmenopausal women; assay type: in vivo
From the text: The study was a single dose, single group, open label ADME study of 8 healthy postmenopausal women. […] The study design consisted of a 28-day screening period, one baseline visit (Day −1), a domiciled period beginning from admission on Day −1 through discharge on Day 7, 2 outpatient visits for PK blood collection on Days 14 (±1) and 21 (±1), 2 subject specific adipose tissue collection visits, and an end-of-study 6 month safety follow-up visit.
The primary goal of this study was to assess the partitioning of CGP47645 into abdominal adipose tissue as a measure of peripheral tissue targeting and to assess whether there may be a longer T½ metabolite, as well as to elucidate the metabolic profile, obtain information on routes of excretion and mass balance. Adipose tissue samples were collected in a sparse sampling protocol, where each subject underwent two collections of adipose tissue, with each subject biopsied at different times.

[6] = target: T1, aromatase (Rattus norvegicus, UniProt P22443); settings: once weekly administration, adult female rats; Batzl-Hartmann et al, 1994; cited from earlier work
T1 construct: host or cells: adult female rats (whole animal, endogenous enzyme)
T1 sequence (P22443 1-508): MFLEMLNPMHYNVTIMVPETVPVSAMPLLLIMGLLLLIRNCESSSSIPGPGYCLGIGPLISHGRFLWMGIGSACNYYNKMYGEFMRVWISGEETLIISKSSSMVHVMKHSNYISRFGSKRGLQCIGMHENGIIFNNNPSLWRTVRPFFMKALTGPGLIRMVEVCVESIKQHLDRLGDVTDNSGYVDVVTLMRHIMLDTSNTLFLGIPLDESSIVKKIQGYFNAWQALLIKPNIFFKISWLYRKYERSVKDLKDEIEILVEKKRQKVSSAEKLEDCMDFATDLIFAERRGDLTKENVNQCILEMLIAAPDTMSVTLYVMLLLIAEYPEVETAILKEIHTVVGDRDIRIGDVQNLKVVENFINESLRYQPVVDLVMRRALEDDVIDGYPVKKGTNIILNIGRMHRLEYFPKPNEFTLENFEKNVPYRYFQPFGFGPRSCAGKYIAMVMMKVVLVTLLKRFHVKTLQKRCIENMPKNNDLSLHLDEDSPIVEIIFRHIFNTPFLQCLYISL

SMILES: N#Cc1ccc(C(F)(c2ccc(C#N)cc2)n2cncn2)cc1 [CGP47645, 4,4′-[fluoro-(1-H-1,2,4-triazol-1-yl)methylene]bisbenzonitrile]
- exposure (AUC) versus dose [1]: proportional to the administered dose
- half-life ([1]; rat, in vivo, read-out: T½ (converted)): 75 h
- estrone suppression compared with letrozole ([2]; postmenopausal women, doses of 0.1 mg and 0.3 mg, letrozole 2.5 mg): at least equal to letrozole
- inhibition of estrone, estrone sulfate and estradiol ([2]; single doses, women): dose-dependent inhibition
- Tmax ([3]; both sexes, dog, plasma, oral, dogs, post dose): 1 to 24 h
- difference in exposure (AUC and Cmax) between male and female dogs ([3]; dogs): no consistent difference
- drug accumulation ([3]; dogs, weekly oral dosing for 4 or 22 weeks versus single dose): no drug accumulation
- increase in exposure (AUC and Cmax) versus dose ([3]; male and female dogs, single and multiple doses): generally proportional to the dose increase
- serum testosterone levels ([3]; male dogs after 1, 4 and 12 weeks of dosing): dramatically elevated testosterone levels at all dose levels
- half-life [4]: about a week
- metabolites in plasma ([5]; LSC and LC-MS): No metabolites were detected in plasma
- Kp ([5]; female, human, abdominal adipose tissue, oral, 1 mg, postmenopausal women, read-out: accumulation in fat tissue in comparison to exposure in plasma): 1 to 3
- half-life ([5]; female, human, single oral 1 mg, plasma, parent drug, read-out: terminal elimination half-life (converted)): ~672 h
- safety and tolerability ([5]; single oral 1 mg 14C-CGP47645): safe and well tolerated
- share of renally eliminated radioactivity recovered as unchanged drug ([5]; single oral 1 mg 14C-CGP47645): 16%
- share of total radioactivity excreted after 6 days that was renally eliminated ([5]; single oral 1 mg 14C-CGP47645): Approximately 84%
- absorption ([5]; single oral 1 mg, healthy postmenopausal women): fast and almost complete absorption
- duration of persistent plasma concentrations post-dose ([5]; single oral 1 mg, terminal phase): > 4000 h
- main metabolites identified in urine ([5]; three main metabolites): a carbinol derivative and two glucuronides
- effective dose achieving medical castration [6]: 3 mg/kg

From patent publication US9750724B2, “Use of an aromatase inhibitor for the treatment of hypogonadism and related diseases” (Mereo BioPharma 2 Limited, priority 2011, dated 2017)
